Assay results: patent US20170312260A1 (LAUNX BIOMEDICAL CO., LTD., priority 2014, published 2017)
Read-outs that look alike come from different tables or passages of the source.

How the values were obtained:
Type in all cases: cell-based
[1] = tested on: HepG2 (hepatocellular carcinoma); assay: WST-1 cell viability analysis, HepG2; settings: Homo sapiens, HepG2, 10 μM, 72 hours, read-out: viability (survival rate) of HepG2 cells
[2] = tested on: bladder cancer cell line T24; assay: WST-1 cell viability analysis, T24; settings: Homo sapiens
Description: (§1) The cell numbers were counted and reseed as 2×10^6 in cell culture plate/flask. Then, the culture medium were added to a volume of 10 ml, and the cells were cultured for 2-3 days. Then, the cells were suspended for loading into 96-well plates. The number of cells was 3000 and the volume of the culture medium was 100 μl each well.
Removing the original culture medium from 96-well plate. Then add 100 μl of commercially drug at a concentration of 10 μM per well. After 72 hours, add the diluted WST-1 reagent to the well with 100 μl/well, and the diluted WST-1 reagent was acquired from the dilution of 9:1 medium and WST-1 stock reagent. Finally, the total volume of each well was 200 μl/well. […] Detecting and calculate the survival rate of each cancer cells with an ELISA reader at OD450 nm.

[3] = tested on: LoVo(Colorectal Adenocarcinoma); assay: WST-1 cell viability analysis, LoVo; settings: Homo sapiens
Description: as §1
(§2) Removing the original culture medium from 96-well plate. Then add 100 μl of commercially drug at a concentration of 10 μM per well. After 72 hours, add the diluted WST-1 reagent to the well with 100 μl/well, and the diluted WST-1 reagent was acquired from the dilution of 9:1 medium and WST-1 stock reagent. Finally, the total volume of each well was 200 μl/well. Culture the 96-well plate at 37° C. for 30 to 90 minutes. Detecting and calculate the survival rate of each cancer cells with an ELISA reader at OD450 nm.

[4] = tested on: prostate cancer cell line PC-3; assay: WST-1 cell viability analysis, PC-3; settings: Homo sapiens
Description: as §1, §2

[5] = tested on: A549 (lung adenocarcinoma); assay: WST-1 cell viability analysis, A549; settings: Homo sapiens
Description: as §1, §2

[6] = tested on: pancreatic cancer cell line BxPC-3; assay: WST-1 cell viability analysis, BxPC-3; settings: Homo sapiens, BXPC-3, 10 μM, 72 hours, read-out: viability (survival rate) of BxPC-3 cells
Description: as §1, §2

[7] = tested on: 786-O (Renal adenocarcinoma); assay: WST-1 cell viability analysis, 786-O; settings: Homo sapiens
Description: as §1, §2

[8] = tested on: HeLa (Cervix Adenocarcinoma); assay: WST-1 cell viability analysis, HeLa; settings: Homo sapiens
Description: as §1, §2

cancers cell lines = assay: Inhibition test on all kinds of cancer cell lines (overall statement); settings: several / various cancer cell lines, Table 18, FIG. 1
Description: as §1, §2
(§3) As a result in the experiments of the present invention.

[9] = tested on: SAS (Tongue squamous cell carcinoma); assay: WST-1 cell viability analysis, SAS
Description: as §1, §2

[10] = WST-1 cell viability analysis, BEAS-2B; settings: human
Source text: Subculture the different types of cancer cell lines. The cancer cells includes lung cancer, gastric cancer, hepatic cancer, colon cancer, skin cancer, cervical cancer, prostate cancer, bladder cancer, breast cancer, leukemia, pancreatic cancer, ovarian cancer, tongue cancer, osteosarcoma, and renal cancer. The normal cells used in the control group included kidney cell (HEK293) and human bronchial epithelial cell line BEAS-2B (as shown in Table 1).
as §1, §2

[11] = tested on: ovarian cancer cell line NIH-OVCAR-3; assay: WST-1 cell viability analysis, NIH-OVCAR-3; settings: Homo sapiens, OVCAR-3, 10 μM, 72 hours, read-out: viability (survival rate) of NIH-OVCAR-3 cells
cervical cancer cells = assay: Summary of cell viability, cervical cancer; settings: 72 hours, summary for cervical cancer, read-out: Inhibitory effect, cervical cancer
Description: as §1, §2, §3

[12] = tested on: ovarian cancer cell line TOV-21G; assay: WST-1 cell viability analysis, TOV-21G; settings: Homo sapiens, TOV21G
Description: as §1, §2

[13] = tested on: bladder cancer cell line TSGH; assay: WST-1 cell viability analysis, TSGH; settings: 72 hours, read-out: viability (survival rate) of TSGH cells
Description: as §1, §2

## CC1=C(C(=O)OC(C)C)C(c2cccc([N+](=O)[O-])c2)C(C(=O)OC2CN(C(c3ccccc3)c3ccccc3)C2)=C(N)N1 (stereo not shown) [Azelnidipine]
[1]; run 0524-20 min
  viability at 10 µM: 110%
[1]; run 0526-20 min
  viability at 10 µM: 87.2%
[1]; run 0529-20 min
  viability at 10 µM: 112%
[1]; run 0531-20 min
  viability at 10 µM: 93.7%
[2]; T-24, 10 μM, 72 hours, run 1-30 min, read-out: viability (survival rate) of T24 cells
  viability at 10 µM: 110%
[2]; T-24, 10 μM, 72 hours, run 2-20 min, read-out: viability (survival rate) of T24 cells
  viability at 10 µM: 75.3%
[2]; T-24, 10 μM, 72 hours, run 3-20 min, read-out: viability (survival rate) of T24 cells
  viability at 10 µM: 30.4%
[2]; T-24, 10 μM, 72 hours, run 4-20 min, read-out: viability (survival rate) of T24 cells
  viability at 10 µM: 102%
[2]; T-24, 72 h, 10 μM, average of 4 tests, read-out: average viability of T24 cells
  viability at 10 µM: 79.5%
[3]; 72 h, average of 4 tests, read-out: Average viability of LoVo cells
  viability at 10 µM: 59.9%
[3]; 72 hours, run 0616-10 min, read-out: viability (survival rate) of LoVo cells
  viability at 10 µM: 49.6%
[3]; 72 hours, run 0619-10 min, read-out: viability (survival rate) of LoVo cells
  viability at 10 µM: 67.2%
[3]; 72 hours, run 0621-10 min, read-out: viability (survival rate) of LoVo cells
  viability at 10 µM: 62.3%
[3]; 72 hours, run 0623-10 min, read-out: viability (survival rate) of LoVo cells
  viability at 10 µM: 60.3%
[4]; PC-3, 10 μM, 72 hours, run PC-3-0524-10 min, read-out: viability (survival rate) of PC-3 cells
  viability at 10 µM: 122%
[4]; PC-3, 10 μM, 72 hours, run PC-3-0526-10 min, read-out: viability (survival rate) of PC-3 cells
  viability at 10 µM: 149%
[4]; PC-3, 10 μM, 72 hours, run PC-3-0529-10 min, read-out: viability (survival rate) of PC-3 cells
  viability at 10 µM: 110%
[4]; PC-3, 10 μM, 72 hours, run PC-3-0531-10 min, read-out: viability (survival rate) of PC-3 cells
  viability at 10 µM: 102%
[4]; PC-3, 72 h, 10 μM, average of 4 tests, read-out: Average viability of PC-3 cells
  viability at 10 µM: 121%
[5]; A549, 10 μM, 72 hours, run 0524-10 min, read-out: viability (survival rate) of A549 cells
  viability at 10 µM: 81.4%
[5]; A549, 10 μM, 72 hours, run 0526-10 min, read-out: viability (survival rate) of A549 cells
  viability at 10 µM: 119%
[5]; A549, 10 μM, 72 hours, run 0529-10 min, read-out: viability (survival rate) of A549 cells
  viability at 10 µM: 69.7%
[5]; A549, 10 μM, 72 hours, run 0531-10 min, read-out: viability (survival rate) of A549 cells
  viability at 10 µM: 80.2%
[5]; A549, 72 h, 10 μM, average of 4 tests, read-out: Average viability of A549 cells
  viability at 10 µM: 87.5%
[6]; run 3-4-30 min
  viability at 10 µM: 77.5%
[6]; run 3-7-3-30 min
  viability at 10 µM: 79.9%
[6]; run 3-7-4-30 min
  viability at 10 µM: 51%
[6]; run 3-7-7-30 min
  viability at 10 µM: 50%
[7]; 786-0, 10 μM, 72 hours, run 0524-10 min, read-out: viability (survival rate) of 786-O cells
  viability at 10 µM: 88.6%
[7]; 786-0, 10 μM, 72 hours, run 0526-10 min, read-out: viability (survival rate) of 786-O cells
  viability at 10 µM: 79.7%
[7]; 786-0, 10 μM, 72 hours, run 0529-10 min, read-out: viability (survival rate) of 786-O cells
  viability at 10 µM: 66.5%
[7]; 786-0, 10 μM, 72 hours, run 0531-10 min, read-out: viability (survival rate) of 786-O cells
  viability at 10 µM: 112%
[7]; 786-0, 72 h, 10 μM, average of 4 tests, read-out: average viability of 786-O cells
  viability at 10 µM: 86.8%
[7]; 786-0, 72 h, 10 μM, summary (786-O), read-out: Inhibitory effect, Kidney cancer
  viability at 10 µM: 86.8%
[8]; 72 h, average of 4 tests, read-out: Average viability of HeLa cells
  viability at 10 µM: 87%
[8]; 72 hours, run 0524-10 min, read-out: viability (survival rate) of HeLa cells
  viability at 10 µM: 70.4%
[8]; 72 hours, run 0526-10 min, read-out: viability (survival rate) of HeLa cells
  viability at 10 µM: 93.7%
[8]; 72 hours, run 0529-10 min, read-out: viability (survival rate) of HeLa cells
  viability at 10 µM: 81.4%
[8]; 72 hours, run 0531-10 min, read-out: viability (survival rate) of HeLa cells
  viability at 10 µM: 103%
Cancers cell lines
  inhibitory effect on cancer cell lines (in words): significant inhibitory effect
[9]; 72 h, average of 4 tests, read-out: Average viability of SAS cells
  viability at 10 µM: 76.8%
[9]; 72 h, summary (SAS), read-out: Inhibitory effect, tongue cancer
  viability at 10 µM: 76.8%
[9]; 72 hours, run 6-26-10 min, read-out: viability (survival rate) of SAS cells
  viability at 10 µM: 69.9%
[9]; 72 hours, run 6-28-10 min, read-out: viability (survival rate) of SAS cells
  viability at 10 µM: 66%
[9]; 72 hours, run 6-30-10 min, read-out: viability (survival rate) of SAS cells
  viability at 10 µM: 66.7%
[9]; 72 hours, run 7-3-10 min, read-out: viability (survival rate) of SAS cells
  viability at 10 µM: 105%
[10]; BEAS-2B bronchial epithelial cells, run 0510-10 min, read-out: viability (survival rate) of BEAS-2B cells
  viability at 72 h, 10 µM: 61.3%
[10]; BEAS-2B cells (normal bronchial epithelial cell line), average of 4 tests, read-out: average viability of BEAS-2B cells
  viability at 72 h, 10 µM: 77.5%
[10]; BEAS-2B cells (normal bronchial epithelial cell line), run 0512-10 min, read-out: viability (survival rate) of BEAS-2B cells
  viability at 72 h, 10 µM: 61.8%
[10]; BEAS-2B cells (normal bronchial epithelial cell line), run 0515-10 min, read-out: viability (survival rate) of BEAS-2B cells
  viability at 72 h, 10 µM: 102%
[10]; BEAS-2B cells (normal bronchial epithelial cell line), run 0517-10 min, read-out: viability (survival rate) of BEAS-2B cells
  viability at 72 h, 10 µM: 85.4%
[11]; run 7-3-30 min
  viability at 10 µM: 106%
[11]; run 7-4-30 min (fourth column)
  viability at 10 µM: 104%
[11]; run 7-4-30 min (second column)
  viability at 10 µM: 99.1%
Cervical cancer cells
  viability at 10 µM: 87%
[12]; 72 h, average of 4 tests, read-out: average viability of TOV-21G cells
  viability at 10 µM: 27.2%
[12]; 72 hours, run 4-30 min, read-out: viability (survival rate) of TOV-21G cells
  viability at 10 µM: 60.1%
[12]; 72 hours, run 7-3-30 min, read-out: viability (survival rate) of TOV-21G cells
  viability at 10 µM: 15.6%
[12]; 72 hours, run 7-4-30 min, read-out: viability (survival rate) of TOV-21G cells
  viability at 10 µM: 13.3%
[12]; 72 hours, run 7-7-30 min, read-out: viability (survival rate) of TOV-21G cells
  viability at 10 µM: 19.6%
[13]; run 0510-10 min
  viability at 10 µM: 151%
[13]; run 0512-10 min
  viability at 10 µM: 117%
[13]; run 0515-10 min
  viability at 10 µM: 72%
[13]; run 0517-10 min
  viability at 10 µM: 120%
